Assay results from publication PMC6458997, “Deciphering the Molecular Mechanism Underpinning Phage Arbitrium Communication Systems” (Molecular Cell, 2019).
Entries after “also recorded” stand apart in the source; their conditions may differ. Where two headings read alike, the source gives them in different places.

Tests used:
[1] = test system: SPbeta AimR and operators presenting spacers from 12 bp to 35 bp; conditions: pH 7.5
Method: AimR binding to its operator and the inhibition induced by the arbitrium peptides were analyzed by native polyacrylamide and agarose gel electrophoresis. […] Double strand DNA primer probes were purchased from Macrogen (Table S1 and Figure 3A). Purified PCR product or purchased probes (0.4μM) and AimR (4μM) protein were mixed in EMSA buffer (50 mM HEPES pH 7.5, 5 mM MgCl2, 75 mM NaCl and 0.5 mM EDTA). The samples were incubated for 10 min at room temperature. 8% polyacrylamide gels were electrophoresed in Tris-Borate-EDTA (TBE) buffer at 100V for one hour, followed by loading of the samples. Electrophoresis was then performed in TBE buffer at 4°C for about 150 min at 100V. Agarose gels (0.8%–1.2%) were run in TAE buffer at room temperature for about 100 min at 80V. Gels were stained with RedSafe (Intron Biotechnology).

[2] = test system: AimR N202A bound to the AimR operator; assay: EMSA, AimP-induced DNA dissociation of mutant AimR N202A; type: biochemical, Bacillus subtilis SPbeta phage; conditions: AimR 4 μM, probe 0.4 μM, HEPES pH 7.5, 10 min at room temperature
Text: (§1) Gels were stained with RedSafe (Intron Biotechnology).

[3] = target: T1, SPbeta AimR (Bacillus phage SPbeta, UniProt O64094); type: binding, Bacillus subtilis SPbeta phage; conditions: WT SPbeta AimR, 20 μM protein, 20 mM Tris pH 8, 250 mM NaCl
T1 construct: expresses the full-length AimR (residues 1-386) with an N-terminal 6xHistag; 6xHis tag followed by TEV protease site (N, cleaved yes); made in house; host or cells: E. coli BL21 (DE3) RIL
Method: (§2) The thermal shift assay was conducted in a 7500 Fast Real time PCR System (Applied Biosystems). Samples of 20 μL containing 5 × Sypro Orange (Sigma-Aldrich) and 20 μM of protein in a 20 mM Tris pH 8 and 250 mM NaCl buffer were loaded in 96-well PCR plates. To calculate the apparent Kd peptide concentrations from 0 to 2 μM were added to the mixture. Samples were heated from 20 to 85°C in steps of one degree. Fluorescent intensity was plotted versus temperature and integrated with GraphPad Prism software using a Boltzmann model to calculate melting temperatures.

[4] = target: T1, SPbeta AimR; assay: SEC-MALS, effect of AimP on AimR oligomeric state; type: biochemical, Bacillus subtilis SPbeta phage; conditions: 1 mM peptide in injected sample, 1 μM in running buffer; protein 5 mg/mL; 25 mM Tris pH 8, 250 mM NaCl
Method: SEC-MALS experiments were performed using an AKTA pure system (GE Heralthcare) coupled to a Wyatt DAWN HELEOS-II MALS instrument and a Wyatt Optilab rEX differential refractometer (Wyatt). 50 μL of the protein samples were injected at a concentration of 5 mg/mL on a Superdex 200 HR 10/300 (GE Heralthcare) column equilibrated in 25 mM Tris pH 8, 250 mM NaCl. When the effect of the peptide in the oligomeric state was tested, 1 mM peptide was added to the injected sample and the running buffer was supplemented with peptide at a final concentration of 1 μM. The Astra 7.1.2 software from the manufacturer was used for acquisition and analysis of the data.

[5] = test system: SPbeta AimR D360A; assay: Thermal shift assay, mutant AimR D360A; type: binding, Bacillus subtilis SPbeta phage; conditions: residual stabilization versus WT
Method: as §2

[6] = test system: SPbeta AimR bound to its operator; type: biochemical, Bacillus subtilis SPbeta phage
Text: as §1

[7] = test system: SPbeta AimR bound to putative SPbeta operators; type: biochemical, Bacillus subtilis SPbeta phage; conditions: pH 7.5
Text: as §1

[8] = test system: SPbeta AimR N202A; assay: Thermal shift assay, mutant AimR N202A; type: binding, Bacillus subtilis SPbeta phage; conditions: residual stabilization versus WT
Method: as §2

T1 sequence (O64094 whole entry, the tested form may be a part): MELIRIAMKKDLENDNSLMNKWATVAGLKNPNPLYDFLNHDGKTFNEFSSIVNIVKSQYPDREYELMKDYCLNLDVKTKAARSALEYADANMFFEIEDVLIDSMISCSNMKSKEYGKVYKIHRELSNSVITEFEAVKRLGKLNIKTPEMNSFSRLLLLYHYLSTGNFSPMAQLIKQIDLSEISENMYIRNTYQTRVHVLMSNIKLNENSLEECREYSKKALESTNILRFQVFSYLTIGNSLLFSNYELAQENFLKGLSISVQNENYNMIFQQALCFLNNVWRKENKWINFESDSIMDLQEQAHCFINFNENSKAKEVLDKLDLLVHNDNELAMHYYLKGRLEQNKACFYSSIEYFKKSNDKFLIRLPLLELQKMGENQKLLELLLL

| Substance | DNA binding of AimR-AimP complex [1] | effect of AimP on DNA dissociation of AimR^N202A [2] | increment in the Tm (in words) [3] | melting temperature (Tm) of AimR in presence of peptide ([3]; 5 × Sypro Orange, 20 to 85°C in steps of one degree, one of three independent experiments) [°C] | effect of AimP on AimR dimer [4] | stabilization induced by AimP, AimR D360A [5] [°] | effect of peptide on AimR-DNA binding ([6]; pH 7.5) | DNA release from putative SPbeta operators [7] | stabilization induced by AimP, AimR N202A [8] [°] | effect of peptide on AimR-DNA binding ([6]; SPbeta AimR 4 μM, DNA probe 0.4 μM, 50 mM HEPES pH 7.5, 5 mM MgCl2, 75 mM NaCl, 0.5 mM EDTA, 10 min at room temperature) |
| --- | --- | --- | --- | --- | --- | --- | --- | --- | --- | --- |
| GMPRGA [regulatory arbitrium AimP peptide for SPbeta AimR, hexapeptide, 95% purity, ProteoGenix] | unable to bind DNA | did not induce DNA dissociation | strong stabilization of SPbeta AimR | 58.4 | did not induce SPbeta AimR dimer dissociation | 1 | induced the release of AimR from DNA; also recorded: specifically disrupts the SPbeta AimR binding to its operator | induces DNA release | 1 |  |
| SAIRGA [AimP peptide specific for phi3T phage, negative control for SPbeta AimR, reference compound] |  |  | No increment in the Tm |  |  |  |  |  |  | had no effect |
